Data set [1] concerns the target human H3 receptor (Homo sapiens (Human), UniProt Q9Y5N1). As to the kind of experiment: Human H3 receptor HTRF cAMP assay. The class given is cell-based. The settings on record: HEK293 cells expressing the human H3 receptor, forskolin 2 μM; read-out: IC50 H3R. The text has this:
Homogeneous time-resolved fluorescence assays (HTRF®, Cisbio) detect levels of cAMP in lysed cell preparations using a europium or terbium cryptate-labeled anti-cAMP antibody and fluorophore-labeled cAMP (cAMP-d2). In the absence of exogenous cAMP, the anti-cAMP antibody binds to cAMP-d2. Photoexcitation of the cryptate donor results in a combination of cryptate emission at 620 nm and fluorescence resonance energy transfer (FRET) from the cryptate to the acceptor d2 fluorophore, which then fluoresces at 665 nm. The 620/665 nm emission ratio is monitored. In the presence of exogenous cAMP, which competes with cAMP-d2 for binding to the anti-cAMP antibody, FRET is decreased and the […], providing a sensitive and accurate means to measure cAMP levels in biological assays.
Compounds of the present invention were evaluated using the human H3 receptor (H3R) HTRF cAMP assay. In this assay, HEK293 cells expressing the human H3 receptor were suspended in PBS containing 100 μM IBMX and plated into 384-well assay plates (Perkin Elmer Proxiplate 384-Plus; 15,000 cells per well; 5 μL plating volume) and allowed to equilibrate for an hour. Test compounds were serially diluted in 100% DMSO and then further diluted in PBS containing forskolin (2 μM). Test compounds (5 μL) were then added to the assay plate and the mixture was incubated for 1 hour. HTRF assay reagents (Cisbio, Dynamic 2 cAMP Kit), cAMP-d2 and cryptate-labeled anti-cAMP antibody, are mixed with cell lysis buffer and added to the assay plate. After 1-hour incubation with these reagents, the assay plate was read on an HTRF-compatible microplate reader (Perkin Elmer EnVision or BMG Pherastar). A cAMP standard curve was included on each assay plate and HTRF emission ratios for test compounds were fit to this curve to generate accurate measures of cAMP levels in each test well.

Data set [2] has as its system histamine-induced scratching behavior in mice. As to the kind of experiment: Histamine-induced model for pruritus (Example 5). The class given is in vivo, C57BL/6 mice. The settings on record: oral administration, histamine 3 μmol s.c. 30 min post-dosing, bouts counted 0-30 min, FIG. 5. Here is the method:
C57BL/6 mice (9 per group) were administered with either vehicle (0.5% Methocellulose) or Compound 3. Thirty minutes post-dosing, the mice were injected with histamine (3 μmol) subcutaneously and placed in a clear observation box. Mice were video recorded and the number of scratching bouts that occurred between 0 and 30 minutes was counted after histamine injection.

For data set [3] the test system is unchanged. Kind of data set: Histamine-induced model for pruritus (Example 6). The data set is classed as in vivo, C57BL/6j male mice. The conditions noted are these: oral administration, histamine s.c. 30 min post-dosing, bouts counted 5-15 min, FIG. 6. Here is the method:
H3R inhibitors, Compound 3 and Compound 11, were dissolved in 0.5% methylcellulose at the appropriate concentration and 100 μL were administered orally to 8-week-old C57BL/6j male mice. Thirty minutes post-dosing, 25 μL of 40 mg/mL histamine solution was injected subcutaneously at the rostral part of the back. Mice were video recorded and the number of scratching bouts that occurred between 5 and 15 minutes was counted after histamine injection.

A short description of data set [4]: Brain to plasma ratio determination in male C57BL6 mouse. The data set is classed as in vivo, Male C57BL6 mice. Here is the method:
Male C57BL6 mice were administered Compound 3 at 3 mg/kg by either intraperitoneal injection (IP) or oral gavage (PO). Plasma and brain samples were collected at 0.5 and 2.0 h post-dose. Blood samples were collected via eye bleed, followed by decapitation and extraction of the brain from the cranial cavity. Blood was treated with 0.5% EDTA; plasma was separated by centrifugation. Brain tissue was placed in ice-cold containers. Plasma and brain samples were frozen at approximately −70° C. until assayed at Arena Pharmaceuticals. Compound 3 plasma and brain concentrations were determined by LC/MS/MS. The lower limit of quantitation (i.e., LLQ) was 25.0 and 3.0 ng/mL for plasma and brain, respectively.

“Also recorded” adds a separate entry of the source. Read-outs that look alike come from different tables or passages of the source.

human H3 receptor, sequence (Q9Y5N1 whole entry): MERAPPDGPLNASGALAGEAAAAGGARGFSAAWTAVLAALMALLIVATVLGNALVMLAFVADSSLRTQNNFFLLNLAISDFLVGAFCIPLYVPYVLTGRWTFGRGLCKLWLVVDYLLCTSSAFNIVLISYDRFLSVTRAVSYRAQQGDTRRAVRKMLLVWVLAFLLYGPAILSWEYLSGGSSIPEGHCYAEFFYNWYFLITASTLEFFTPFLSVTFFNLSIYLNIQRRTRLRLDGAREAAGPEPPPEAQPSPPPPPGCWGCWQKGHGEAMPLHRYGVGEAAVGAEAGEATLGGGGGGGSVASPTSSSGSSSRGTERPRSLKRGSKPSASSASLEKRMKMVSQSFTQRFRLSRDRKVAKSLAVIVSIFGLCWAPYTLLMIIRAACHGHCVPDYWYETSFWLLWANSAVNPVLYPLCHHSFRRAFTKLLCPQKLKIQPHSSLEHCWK

As to `C[C@@H]1CCCN1CCc1ccc(-c2ccc(CCC(=O)O)cc2)cc1` [Compound 3, (R)-3-(4′-(2-(2-Methylpyrrolidin-1-yl)ethyl)biphenyl-4-yl)propanoic Acid], the IC50 in data set [1] is 2.5 nM. Besides, the entries for the “histamine-induced scratching behavior (number of scratching bouts)” value in data set [2] and in data set [3] were “effectively inhibits histamine-induced pruritus; also recorded: inhibit histamine-induced scratching behavior” and “effectively inhibit histamine-induced pruritus; also recorded: inhibit histamine-induced scratching behavior”, respectively. Moreover, the concentration at 0.5 h in data set [4] (C57BL6, brain, 3 mg/kg PO, 0.5 h post-dose, read-out: brain concentration) turned out to be 39.8 ± 22.7 ng/g; in data set [4] (C57BL6, brain, intraperitoneal, 3 mg/kg IP, 0.5 h post-dose, read-out: brain concentration) it was 71.7 ± 10.7 ng/g; in data set [4] (C57BL6, plasma, 3 mg/kg PO, 0.5 h post-dose, read-out: plasma concentration) it was 1080 ± 487 ng/mL; in data set [4] (C57BL6, plasma, intraperitoneal, 3 mg/kg IP, 0.5 h post-dose, read-out: plasma concentration), 1350 ± 104 ng/mL. Moreover, the concentration at 2 h in data set [4] (C57BL6, brain, 3 mg/kg PO, 2.0 h post-dose, read-out: brain concentration) was found to be 29.1 ± 7 ng/g; in data set [4] (C57BL6, brain, intraperitoneal, 3 mg/kg IP, 2.0 h post-dose, read-out: brain concentration) it was 17.2 ± 7.5 ng/g; in data set [4] (C57BL6, plasma, 3 mg/kg PO, 2.0 h post-dose, read-out: plasma concentration), 619 ± 185 ng/mL; in data set [4] (C57BL6, plasma, intraperitoneal, 3 mg/kg IP, 2.0 h post-dose, read-out: plasma concentration), 364 ± 135 ng/mL. Further, in data set [4] (C57BL6, brain/plasma, 3 mg/kg IP, independent of time), the Kp was around 0.05. Also, the partition ratio (Kp) at 0.5 h in data set [4] (C57BL6, brain/plasma, 3 mg/kg PO, 0.5 h post-dose) amounted to 0.04. The partition ratio (Kp) at 2 h in data set [4] (C57BL6, brain/plasma, 3 mg/kg PO, 2.0 h post-dose) worked out at 0.05.
